Measured values reported in patent publication US20260130951A1, “GLYCYRRHIZIN-GLYCOL CHITOSAN CONJUGATE-COATED IRON OXIDE NANOPARTICLES AND USE THEREOF” (Industry-University Cooperation Foundation Hanyang …, priority 2018, published 2026).

Columns and labels:
[1] = about 5 mg/kg intravenously injected; cited from earlier work
[2] = Liver lobe distribution after hepatic portal vein injection of methylene blue solution; assay type: in vivo, balb/c mice; details: about 24 hours
Description: After zoletil and rumpun were injected into the abdominal cavity of balb/c mice at a ratio of 9:1 to anesthetize them, a methylene blue solution was injected by hepatic portal vein […]. After waiting for about 24 hours for tissue fixation of the methylene blue solution, all liver lobes were isolated by sacrificing the mice. The isolated liver lobes were fixed with a 10% formalin solution, made into a paraffin block, and cut into a thickness of 5 μm to prepare a tissue section slide. Thereafter, paraffin was removed from the tissue section slide, the slide was rehydrated, and then the tissue section was stained with a Harris hematoxylin solution and an eosin solution, and observed under an optical microscope.

Row | Compound | time glycyrrhizin remains in the body [1] [min] | distribution of methylene blue solution among liver lobes (image J) [2]
1 | CC1(C)[C@@H](O[C@H]2O[C@H](C(=O)O)[C@@H](O)[C@H](O)[C@H]2O[C@@H]2O[C@H](C(=O)O)[C@@H](O)[C@H](O)[C@H]2O)CC[C@]2(C)[C@H]3C(=O)C=C4[C@@H]5C[C@@](C)(C(=O)O)CC[C@]5(C)CC[C@@]4(C)[C@]3(C)CC[C@@H]12 [glycyrrhizin] | ≤ 15 | 
2 | CN(C)c1ccc2nc3ccc(=[N+](C)C)cc-3sc2c1 [methylene blue solution, methylene blue] |  | present in the largest amount in Mediate 1
